Measured values taken from PMC10004195, “Novel Dual-Target Kinase Inhibitors of EGFR and ALK Were Designed, Synthesized, and Induced Cell Apoptosis in Non-Small Cell Lung Cancer” (Molecules, 2023).

Legend:
[1] = test system: LO2 (human normal liver cells); assay: Cytotoxicity test on nontumorigenic cells, LO2; format: cell-based
Excerpt: (§1) It is critical to evaluate the balance between the safety and efficacy of drugs for the development of new drugs; thus, we then conducted a cytotoxicity test on […] types of nontumorigenic cell lines from different origins, including LO2 (human normal liver cells), HK2 (human kidney proximal convoluted tubule epithelial cells), HLF (human embryonic lung fibroblast), 293A (human embryonic kidney cells), and HUVEC (human umbilical vein endothelial cells). […] In addition, we evaluated the compound’s safety in vivo by performing acute toxicity tests in mice, and 9j was injected intravenously at concentrations of 100 mg/kg, 150 mg/kg, and 300 mg/kg.
(§2) A total of 7000 cells per well were seeded in a 96-well plate with at least three technical replicates; then, exposed to different concentrations (10, 5, 1, 0.1, 0.05, 0.01 uM) of the test compounds for 72 h. After the treatment, CCK8 (Sigma, St. Louis, MO, USA) was added to each well under sterile conditions (to a final concentration of 10% of the total volume) and the plates were incubated for 2–4 h at 37 °C. Absorbance was measured at 450 nm in a microplate reader.

[2] = test system: HK2 (human kidney proximal convoluted tubule epithelial cells); assay: Cytotoxicity test on nontumorigenic cells, HK2; format: cell-based
Excerpt: as §1, §2

[3] = test system: phosphorylated EGFR (p-EGFR); assay: Immunofluorescence assay of phosphorylated EGFR; format: cell-based, human; conditions: fluorescence assay, treatment for 2 to 4 h
Description: (§3) Four kinases (EGFR, EGFR^L858R/T790M, ALK, and EML4-ALK) were tested using an ELISA assay. […] There was no effect on the wild-type EGFR or ALK kinases triggered by the compound. Consequently, the selection of the compound was good as both compounds balanced IC50 against EGFR and ALK, respectively. […] Following that, fluorescence assays were used to measure the phosphorylation of the EGFR and ALK protein affect with compound 9j at the cellular level. […] Next, WB assay was used to test the protein expression of H1975 and H2228 cells at the concentration of 5, 10, and 100 nM.
Figure 2 (A) The activity of compound 9j against four kinases (EGFR, ALK, EGFR ^L858R T790M, and EML4-ALK). (B) H1975 and H2228 cells were treated with 9j for 2–4 h; the staining for phosphorylated EGFR (p-EGFR) and phosphorylated ALK (p-ALK) was shown as red fluorescence. (C) WB analysis of phosphorylated proteins in drug-treated H1975 and H2228 cells.

ALK wild-type kinase = ALK wild-type kinase (Homo sapiens, UniProt Q9UM73); assay: Kinase ELISA assay, wild-type ALK; format: biochemical
Description: as §3

H1975 cells [4] = assay: Transwell migration and invasion assay; format: cell-based, human
Description: The migration and invasion of tumor cells directly contribute to metastasis. Metastasis is the leading cause of death in cancer patients. To determine the ability of 9j to inhibit tumor cell migration, the cell scratching assay was performed. Following scratching, phase contrast pictures were taken of the scratched and healing cell monolayers.
Migration assay was performed using an 8 um pore Boyden chamber (24-well, #353097, Corning, NY, USA), and incubated in the presence or absence of compound 9j. A total of 50,000 cells were seeded in serum-free medium in the top chamber and allowed to migrate for 48 h toward the bottom chamber containing 10% fetal bovine serum medium. Cells were fixed and permeabilized with cold 70% ethanol and methanol, and stained with 0.4% crystal violet. The average number of migrating cells was evaluated from at least four independent microscope fields.

p-AKT = assay: Western blot, p-AKT; format: cell-based, human; conditions: WB, 5, 10 and 100 nM, 3 h treatment
Description: as §3
H1975 (H2228) cells seeded in 60 mm dishes at a density of 5 × 10^5 cells/well were incubated with or without compound 9j (0, 5, 10, 100 nM) for 2–4 h. After treatment, cells were stained as previously described.

[5] = test system: nontumorigenic cell lines
Excerpt: as §1, §2

EML4-ALK = EML4-ALK (Homo sapiens, UniProt Q9UM73); assay: Kinase ELISA assay, EML4-ALK; format: biochemical; conditions: read-out: IC50 against EML4-ALK
Description: as §3

[6] = test system: 293A (human embryonic kidney cells); assay: Cytotoxicity test on nontumorigenic cells, 293A; format: cell-based
Excerpt: as §1, §2

mice = assay: Acute toxicity test in mice; conditions: injected intravenously, 100, 150 and 300 mg/kg (Figure S1)
Excerpt: as §1

EGFR^L858R/T790M = EGFR^L858R/T790M (Homo sapiens, UniProt P00533, L858R/T790M); assay: Kinase ELISA assay, EGFR L858R/T790M; format: biochemical; conditions: read-out: IC50 against EGFR^L858R/T790M
Description: as §3

H522 cells = assay: CCK8 antiproliferative assay, H522 cells; format: cell-based; conditions: Homo sapiens, NCI-H522, 72 h
Excerpt: The human cancer cell lines (H1975, H2228) used in this study were purchased from the Guangzhou ginny ou biotechnology Co., Ltd. (Guangzhou, China). The human cancer cell lines (NCI-H522) used in this study were purchased from the Shenzhen Haodi Huatuo Biotechnology Co., LTD (Shenzhen, China). The human cancer cell lines (LOVO, HLF, BJ, LO2) used in this study were purchased from the Laboratory Animal Service Center at Sun Yat-sen University (Guangzhou, China). Cell lines were cultivated in 1640 containing 10% (v/v) heat-inactivated fetal bovine serum (FBS), 100 units/mL penicillin, and 100 μg/mL streptomycin. Cell lines LOVO, HLF, BJ, and LO2 were cultivated in DMEM containing 10% (v/v) heat-inactivated fetal bovine serum (FBS), 100 units/mL penicillin, and 100 μg/mL streptomycin.

H1975 cells [7] = assay: Apoptosis assay by flow cytometry (annexin V / PI); format: cell-based, human; conditions: 48 h, control 6.07%
Excerpt: The death of cells occurs by apoptosis, and the uncontrolled division and multiplication of cells causes cancer. Inhibiting cellular apoptosis is primarily responsible for cancer cell survival, since cellular apoptosis is negatively correlated with cell growth. We then verified the antitumor effect of compound 9j by inducing apoptosis through flow cytometry.
To assay the number of apoptotic cells, cells were stained with allo-phycocyanin–annexin V (#550475, BD Pharmingen, Becton Drive Franklin Lakes, NJ, USA) for 15 min; then, they were washed and resuspended in 1:500 propidium iodide (#81845, Sigma-Aldrich, St. Louis, Mo, USA) viability marker, and acquired on LSRFortessa. Data were analyzed with FlowJo software. Annexin V+ cells were considered as apoptotic cells.

[8] = test system: HUVEC (human umbilical vein endothelial cells); assay: Cytotoxicity test on nontumorigenic cells, HUVEC; format: cell-based
Excerpt: as §1, §2

ALK wild-type kinase, sequence (Q9UM73 19-1620): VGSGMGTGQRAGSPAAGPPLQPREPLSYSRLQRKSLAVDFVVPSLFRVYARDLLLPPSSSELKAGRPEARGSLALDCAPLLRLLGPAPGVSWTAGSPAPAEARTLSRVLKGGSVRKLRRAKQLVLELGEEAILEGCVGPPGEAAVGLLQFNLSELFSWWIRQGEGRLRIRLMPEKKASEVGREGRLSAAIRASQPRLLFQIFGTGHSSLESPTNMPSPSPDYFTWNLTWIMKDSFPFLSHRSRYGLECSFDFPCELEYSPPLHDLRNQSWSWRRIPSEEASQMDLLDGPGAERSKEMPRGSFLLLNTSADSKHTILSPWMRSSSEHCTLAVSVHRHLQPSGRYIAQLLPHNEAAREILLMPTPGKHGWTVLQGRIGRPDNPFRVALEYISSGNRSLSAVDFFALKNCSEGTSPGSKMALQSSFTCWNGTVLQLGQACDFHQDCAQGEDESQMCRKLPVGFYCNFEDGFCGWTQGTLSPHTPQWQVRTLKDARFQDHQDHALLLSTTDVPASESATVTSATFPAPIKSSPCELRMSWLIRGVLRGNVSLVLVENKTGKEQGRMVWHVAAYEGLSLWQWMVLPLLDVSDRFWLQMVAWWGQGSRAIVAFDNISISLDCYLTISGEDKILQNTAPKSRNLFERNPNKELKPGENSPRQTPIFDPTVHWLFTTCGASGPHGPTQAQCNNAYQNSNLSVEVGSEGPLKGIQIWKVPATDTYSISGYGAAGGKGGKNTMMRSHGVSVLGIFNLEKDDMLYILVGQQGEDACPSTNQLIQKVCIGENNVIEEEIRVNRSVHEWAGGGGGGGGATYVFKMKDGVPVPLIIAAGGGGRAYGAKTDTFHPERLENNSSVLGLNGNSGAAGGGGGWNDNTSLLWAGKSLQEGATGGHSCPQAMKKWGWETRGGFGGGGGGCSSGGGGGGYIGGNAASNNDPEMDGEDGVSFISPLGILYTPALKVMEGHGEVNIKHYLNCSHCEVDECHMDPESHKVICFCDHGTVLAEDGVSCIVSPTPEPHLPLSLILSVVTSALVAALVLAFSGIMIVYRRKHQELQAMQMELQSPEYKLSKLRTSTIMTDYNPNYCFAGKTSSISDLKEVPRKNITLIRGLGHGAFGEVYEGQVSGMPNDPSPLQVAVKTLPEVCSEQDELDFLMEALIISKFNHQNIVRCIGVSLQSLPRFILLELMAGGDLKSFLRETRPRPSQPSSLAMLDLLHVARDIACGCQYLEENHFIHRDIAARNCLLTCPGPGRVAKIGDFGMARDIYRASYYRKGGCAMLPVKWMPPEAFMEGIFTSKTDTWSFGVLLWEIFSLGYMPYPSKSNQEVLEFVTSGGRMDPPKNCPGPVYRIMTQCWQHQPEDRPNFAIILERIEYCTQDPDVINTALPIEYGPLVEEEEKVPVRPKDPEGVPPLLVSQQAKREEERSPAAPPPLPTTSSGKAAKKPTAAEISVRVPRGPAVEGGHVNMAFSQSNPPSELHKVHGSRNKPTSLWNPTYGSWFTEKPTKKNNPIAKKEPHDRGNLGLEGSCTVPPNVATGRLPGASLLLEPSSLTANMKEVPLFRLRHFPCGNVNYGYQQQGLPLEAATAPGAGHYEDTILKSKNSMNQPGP
EML4-ALK, sequence (Q9UM73 1058-1620): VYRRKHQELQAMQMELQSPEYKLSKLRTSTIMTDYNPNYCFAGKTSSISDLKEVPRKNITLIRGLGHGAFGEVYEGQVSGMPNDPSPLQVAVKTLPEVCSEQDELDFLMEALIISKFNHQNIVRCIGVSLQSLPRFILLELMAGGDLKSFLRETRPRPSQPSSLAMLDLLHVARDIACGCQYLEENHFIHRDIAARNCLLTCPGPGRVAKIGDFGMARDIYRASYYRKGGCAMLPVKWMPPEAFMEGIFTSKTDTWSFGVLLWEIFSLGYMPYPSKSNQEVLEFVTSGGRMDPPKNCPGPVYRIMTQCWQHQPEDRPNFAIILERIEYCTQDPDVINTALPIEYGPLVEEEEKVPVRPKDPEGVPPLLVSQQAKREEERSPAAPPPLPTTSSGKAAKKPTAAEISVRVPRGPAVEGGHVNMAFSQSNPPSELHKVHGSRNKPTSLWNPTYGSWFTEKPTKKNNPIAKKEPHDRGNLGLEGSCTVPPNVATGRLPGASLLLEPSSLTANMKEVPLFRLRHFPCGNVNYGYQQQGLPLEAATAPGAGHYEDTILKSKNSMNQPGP
EML4-ALK, sequence (Q9HC35 1-496, further chain): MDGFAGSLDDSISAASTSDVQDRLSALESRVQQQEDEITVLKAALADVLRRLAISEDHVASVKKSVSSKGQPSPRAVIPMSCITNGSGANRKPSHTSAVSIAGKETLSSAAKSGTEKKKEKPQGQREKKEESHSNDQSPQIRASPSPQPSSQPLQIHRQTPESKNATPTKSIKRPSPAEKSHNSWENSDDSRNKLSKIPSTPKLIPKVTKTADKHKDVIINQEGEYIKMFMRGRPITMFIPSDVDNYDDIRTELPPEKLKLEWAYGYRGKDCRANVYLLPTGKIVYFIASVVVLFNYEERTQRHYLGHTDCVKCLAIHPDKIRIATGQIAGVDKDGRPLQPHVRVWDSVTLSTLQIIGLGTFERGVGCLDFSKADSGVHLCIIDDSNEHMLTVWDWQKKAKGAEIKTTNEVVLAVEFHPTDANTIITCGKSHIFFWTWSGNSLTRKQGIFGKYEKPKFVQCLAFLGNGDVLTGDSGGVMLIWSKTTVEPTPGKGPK
EGFR^L858R/T790M, sequence (P00533 25-1210 T790M/L858R): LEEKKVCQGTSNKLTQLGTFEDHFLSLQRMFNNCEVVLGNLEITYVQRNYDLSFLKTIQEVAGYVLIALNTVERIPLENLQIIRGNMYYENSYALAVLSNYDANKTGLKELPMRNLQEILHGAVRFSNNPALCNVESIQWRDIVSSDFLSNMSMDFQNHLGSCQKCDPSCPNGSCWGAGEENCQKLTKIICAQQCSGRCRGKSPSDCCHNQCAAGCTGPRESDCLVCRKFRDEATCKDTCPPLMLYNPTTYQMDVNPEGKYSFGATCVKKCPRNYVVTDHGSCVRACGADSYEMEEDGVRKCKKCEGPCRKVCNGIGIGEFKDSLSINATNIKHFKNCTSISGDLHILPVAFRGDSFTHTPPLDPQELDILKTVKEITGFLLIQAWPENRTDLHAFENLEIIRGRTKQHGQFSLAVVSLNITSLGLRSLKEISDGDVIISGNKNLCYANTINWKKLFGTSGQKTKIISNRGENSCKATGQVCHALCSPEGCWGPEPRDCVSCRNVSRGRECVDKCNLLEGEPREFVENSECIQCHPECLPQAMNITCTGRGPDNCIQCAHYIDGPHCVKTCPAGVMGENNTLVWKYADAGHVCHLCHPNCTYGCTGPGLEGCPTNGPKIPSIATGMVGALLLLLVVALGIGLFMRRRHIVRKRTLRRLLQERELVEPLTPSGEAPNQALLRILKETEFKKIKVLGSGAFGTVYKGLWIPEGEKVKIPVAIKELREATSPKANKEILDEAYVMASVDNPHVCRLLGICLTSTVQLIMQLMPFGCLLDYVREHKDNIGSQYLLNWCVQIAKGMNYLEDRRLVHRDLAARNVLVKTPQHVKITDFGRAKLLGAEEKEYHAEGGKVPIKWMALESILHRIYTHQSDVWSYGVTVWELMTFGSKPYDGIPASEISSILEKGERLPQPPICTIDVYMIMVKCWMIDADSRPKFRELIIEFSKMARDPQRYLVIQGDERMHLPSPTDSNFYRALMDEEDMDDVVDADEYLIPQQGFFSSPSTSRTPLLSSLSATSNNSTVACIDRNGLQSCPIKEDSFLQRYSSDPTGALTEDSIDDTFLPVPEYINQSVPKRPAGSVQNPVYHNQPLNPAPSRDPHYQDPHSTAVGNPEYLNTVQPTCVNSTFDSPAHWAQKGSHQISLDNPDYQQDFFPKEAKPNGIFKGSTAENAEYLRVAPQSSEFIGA

Structure (SMILES): C=CC(=O)Nc1cc(Nc2ncc(Cl)c(Nc3ccc(Cl)cc3[S+]([O-])C(C)C)n2)c(OC)cc1C1CCN(C)CC1 (centres unmarked) [9j, N-(5-((5-Chloro-4-((4-chloro-2-(isopropylsulfinyl)phenyl)amino)pyrimidin-2-yl)amino)-4-methoxy-2-(1-methylpiperidin-4-yl)phenyl)acrylamide]
- IC50 ([1]; Homo sapiens, LO2, mean ± SE, read-out: Toxicity to normal cells, IC50 LO2): 23.96 ± 0.03 µM
- Selectivity Ratio (IC50 human normal cells)/(IC50 H1975), LO2 ([1]; LO2 vs H1975): 306.1
- Selectivity Ratio (IC50 human normal cells)/(IC50 H1975), HK2 ([2]; HK2 vs H1975): 329.6
- IC50 ([2]; Homo sapiens, Epithelial cell, HK2, mean ± SE, read-out: Toxicity to normal cells, IC50 HK2): 25.71 ± 0.08 µM
- expression level of phosphorylated EGFR protein [3]: decreased significantly
- IC50 (ALK wild-type kinase): 0.13 ± 0.015 µM
- invasion ability (H1975 cells [4]): reduced its invasion ability in a concentration-dependent manner
- expression of p-AKT (p-AKT): inhibited
- toxicity toward the nontumorigenic cell lines [5]: very little apparent toxicity
- IC50 (EML4-ALK): 0.0563 ± 0.0003 µM
- Selectivity Ratio (IC50 human normal cells)/(IC50 H1975), 293A ([6]; 293A vs H1975): 255.5
- IC50 ([6]; Homo sapiens, 293A, mean ± SE, read-out: Toxicity to normal cells, IC50 293A): 20 ± 0.05 µM
- HE staining of lung and heart tissues (mice): did not indicate toxicity
- IC50 (EGFR^L858R/T790M): 0.0357 ± 0.0009 µM
- IC50 (H522 cells): > 10 µM
- apoptotic rate (H1975 cells [7]; 10 nM): 12.7%
- apoptotic rate (H1975 cells [7]; 50 nM): 26.8%
- apoptotic rate (H1975 cells [7]; 100 nM): 47.67%
- Selectivity Ratio (IC50 human normal cells)/(IC50 H1975), HUVEC ([8]; HUVEC vs H1975): 273.8
- IC50 ([8]; Homo sapiens, HUVEC, mean ± SE, read-out: Toxicity to normal cells, IC50 HUVEC): 21.36 ± 0.06 µM
